# Key:
# Assay type in all cases: in vivo
# Eragrostis teff = test: HTPS pre-emergence application on monocot model plant
# Experimental: (§1) The plates were placed in a controlled greenhouse in a random order inside a bath which allows flooding irrigation with tap water supplemented with a fertilizer. Applied compounds were dissolved into a final solution of 50% acetone, 49.9% DDW, 0.1% tween-20. A 96 well plate was used as a stock plate for preparing application solutions for 8 repeats. Each row contained different concentrations per chemical. Maximal concentration for application was 1.5 Kg/Ha and dilution factor is 2.5. Chemical application was performed one day after thinning out in a chemical hood. […] applied on first two true leaves in each well using 12 channel pipettes. Data collection: RGB (red, green, blue) data for green area per well was documented using camera. Data is collected at a few time points during the experiment: one day after thinning and before chemical application, two-, six- or nine-days post application. During the last two documentations, visual phenotyping was performed. Data analysis: Given RGB results and visual phenotype scores, a student t-test conducted to compare between treatment and control performance for continuous data (RGB) and Fisher exact test to analyze the non-continuous data (phenotypic scores). Dose-Response curves are generated for each treatment to infer ED50 and max. inhibition parameters, using treatment's log concentration range as the […] and normalized green area. […] Plate imaging performed at 11 and 18 DAA. RGB data for green area per well was documented and used to extract % inhibition. Dose-Response curves were built for each treatment to infer EC50, EC75 and EC90 parameters, using treatment's log concentration range as the independent variable and normalized green area as the dependent variable. Treatments were compared to controls performance given RGB results and using student's t-test (p-val≤0.05). Compounds 104-154 were applied in either or both pre- and post-emergence mode to either or both monocot and dicot model plants, following the methods described above. The compounds were applied as a gradient of concentrations as listed above, from which the ED50 was calculated.
# Stellaria media = test: LTP post-emergence greenhouse test; conditions: Dosage 2000 g/ha
# Arabidopsis thaliana [1] = test: LTP post-emergence greenhouse test; conditions: Dosage 2000 g/ha
# Amaranthus palmeri = test: LTP post-emergence greenhouse test; conditions: Dosage 2000 g/ha
# Poa annua = test: LTP post-emergence greenhouse test; conditions: Dosage 2000 g/ha
# Arabidopsis thaliana [2] = test: HTPS pre-emergence application on dicot model plant
# Experimental: as §1
# Abutilon theophrasti = test: LTP post-emergence greenhouse test; conditions: Dosage 2000 g/ha
# Echinochloa colon = test: LTP post-emergence greenhouse test; conditions: Dosage 2000 g/ha
# Lolium multiflorum = test: LTP post-emergence greenhouse test; conditions: Dosage 2000 g/ha
# Alopecurus myosuroides = test: LTP post-emergence greenhouse test; conditions: Dosage 2000 g/ha
# Lolium perenne = test: LTP post-emergence greenhouse test; conditions: Dosage 2000 g/ha
# Arabidopsis thaliana [3] = test: HTPS post-emergence application on miniature dicot model plant
# Experimental: The plates were placed in a controlled greenhouse in a random order inside a bath which allows flooding irrigation with tap water supplemented with a fertilizer. Applied compounds were dissolved into a final solution of 50% acetone, 49.9% DDW, 0.1% tween-20. A 96 well plate was used as a stock plate for preparing application solutions for 8 repeats. Each row contained different concentrations per chemical. Maximal concentration for application was 1.5 Kg/Ha and dilution factor is 2.5. Chemical application was performed one day after thinning out in a chemical hood. […] applied on first two true leaves in each well using 12 channel pipettes. Data collection: RGB (red, green, blue) data for green area per well was documented using camera. Data is collected at a few time points during the experiment: one day after thinning and before chemical application, two-, six- or nine-days post application. During the last two documentations, visual phenotyping was performed. Data analysis: Given RGB results and visual phenotype scores, a student t-test conducted to compare between treatment and control performance for continuous data (RGB) and Fisher exact test to analyze the non-continuous data (phenotypic scores). Dose-Response curves are generated for each treatment to infer ED50 and max. inhibition parameters, using treatment's log concentration range as the […] variable and normalized green area. Plate imaging performed at 11 and 18 DAA. RGB data for green area per well was documented and used to extract % inhibition. Dose-Response curves were built for each treatment to infer EC50, EC75 and EC90 parameters, using treatment's log concentration range as the independent variable and normalized green area as the dependent variable. Treatments were compared to controls performance given RGB results and using student's t-test (p-val≤0.05). Compounds 104-154 were applied in either or both pre- and post-emergence mode to either or both monocot and dicot model plants, following the methods described above. The compounds were applied as a gradient of concentrations as listed above, from which the ED50 was calculated.
# Conyza canadensis = test: LTP post-emergence greenhouse test; conditions: Dosage 2000 g/ha
# Galium aparine = test: LTP post-emergence greenhouse test; conditions: Dosage 2000 g/ha
# Matricaria chamomilla = test: LTP post-emergence greenhouse test; conditions: Dosage 2000 g/ha
# Solanum nigrum = test: LTP post-emergence greenhouse test; conditions: Dosage 2000 g/ha
# Sinapis alba = test: LTP post-emergence greenhouse test; conditions: Dosage 2000 g/ha
# [4] = dose-response of normalized green area
smiles,measurement,setting,value
"C[C@@H](O)[C@@H](N)CCCCC(=O)O [Compound 104, (6S,7R)-6-amino-7-hydroxyoctanoic acid]",ED50 (g/ha),Eragrostis teff; [4],35 g/ha
same,Max Inhibition (%),Eragrostis teff; green area (RGB),100%
same,"Herbicidal activity (In-planta), LTP-Post emergence, Stellaria media",Stellaria media,95
same,"Herbicidal activity (In-planta), LTP-Post emergence, Arabidopsis thaliana",Arabidopsis thaliana [1],60
same,"Herbicidal activity (In-planta), LTP-Post emergence, Amaranthus palmeri",Amaranthus palmeri,90
same,"Herbicidal activity (In-planta), LTP-Post emergence, Poa annua",Poa annua,90
same,ED50 (g/ha),Arabidopsis thaliana [2]; [4],6 g/ha
same,Max Inhibition (%),Arabidopsis thaliana [2]; green area (RGB),94%
same,"Herbicidal activity (In-planta), LTP-Post emergence, Abutilon theophrasti",Abutilon theophrasti,80
same,"Herbicidal activity (In-planta), LTP-Post emergence, Echinochloa colon",Echinochloa colon,95
same,"Herbicidal activity (In-planta), LTP-Post emergence, Lolium multiflorum",Lolium multiflorum,80-90
same,"Herbicidal activity (In-planta), LTP-Post emergence, Alopecurus myosuroides",Alopecurus myosuroides,95
same,"Herbicidal activity (In-planta), LTP-Post emergence, Lolium perenne",Lolium perenne,85-90
same,Emax,"Arabidopsis thaliana [3]; Arabidopsis thaliana, post-emergence, green area (RGB), read-out: Max Inhibition (%)",100%
same,ED50 (g/ha),Arabidopsis thaliana [3]; [4],0.2 g/ha
same,"Herbicidal activity (In-planta), LTP-Post emergence, Conyza canadensis",Conyza canadensis,95
same,"Herbicidal activity (In-planta), LTP-Post emergence, Galium aparine",Galium aparine,70
same,"Herbicidal activity (In-planta), LTP-Post emergence, Matricaria chamomilla",Matricaria chamomilla,70-80
same,"Herbicidal activity (In-planta), LTP-Post emergence, Solanum nigrum",Solanum nigrum,80-90
same,"Herbicidal activity (In-planta), LTP-Post emergence, Sinapis alba",Sinapis alba,60

# Source: patent publication US20230331685A1, “HERBICIDAL COMPOUNDS AND METHODS OF USE THEREOF” (AG Plenus Ltd, priority 2020, published 2023)
